Assay results as given in ChEMBL document CHEMBL1136479, “DAPI derivative: a fluorescent DNA dye that can be covalently attached to biomolecules” (Bioorg Med Chem Lett, 2003).
“And” between values parts separate entries of the source, which are not always exact repeats. Identical values can stand only once.

How the values were obtained:
[1] = The background fluorescence was measured in TE buffer in the absence of DNA
[2] = The background fluorescence was measured in TE buffer in the presence of calf thymus DNA (4 ug/mL) at a molar ratio of 2000:1 (Compound:DNA)
[3] = The background fluorescence was measured in TE buffer in the presence of calf thymus DNA (4 ug/mL) at a molar ratio of 4000:1 (Compound:DNA)
[4] = Enhancement in fluorescence intensity was calculated as fluorescence intensity in presence of DNA/fluorescence intensity in absence of DNA
[5] = The background fluorescence was measured in TE buffer in the presence of calf thymus DNA (4 ug/mL) at a molar ratio of 8000:1 (Compound:DNA)
[6] = The background fluorescence was measured in TE buffer in the presence of calf thymus DNA (4 ug/mL) at a molar ratio of 1000:1 (Compound:DNA)

Row | Fluorescence intensity [1] | Fluorescence intensity [2] | Fluorescence intensity [3] | Enhancement [4] | Fluorescence intensity [5] | Fluorescence intensity [6] | SMILES
1 | 25.3 and 15.7 and 9.8 | 75 | 94.8 | 3.4 and 6 and 7.7 | 86.7 | – | N=C(N)c1ccc(-c2[nH]c3cc(C(=N)N)ccc3c2Cc2cc([N+](=O)[O-])ccc2O)cc1
2 | – | 214 | 236 | – | 295 | 179 | N=C(N)c1ccc(-c2cc3ccc(C(=N)N)cc3[nH]2)cc1
